Patent US10640556B2, “Anti amphiregulin antibodies, compositions comprising same and uses thereof” (Yeda Research and Development Co. Ltd., priority 2015, dated 2020)

Key:
[1] = tested on: MLS ovarian cancer cells and A549 lung cancer cells; assay: ELISA of ligand secretion by MLS and A549 cells; format: cell-based, human; settings: ovarian (MLS) and lung (A549) cancer cells exposed to cisplatin
Experimental: (§1) FIGS. 5C-5F illustrate that AREG, unlike HB-EGF and TGF-alpha, undergoes up-regulation in response to a chemotherapeutic agent. FIG. 5C is a graph illustrating results of MLS cells transfected with a luciferase reporter containing the promoter region of TGF-alpha. The luciferase activity derived from the Renilla luciferase was normalized to that derived from the firefly luciferase (co-transfection control). Twenty-four hours after transfection, increasing concentrations of cisplatin were added, and 24 hours later the cells were subjected to luciferase assays; FIG. 5D is a graph illustrating assessment of GAPDH promoter activity as described in FIG. 5C; FIG. 5E is a graph illustrating the results of MLS ovarian cancer cells exposed to increasing concentrations of cisplatin. Cells were assessed for the secretion of the indicated ligands using ELISA; and FIG. 5F is a graph illustrating assessment of the A549 lung cancer cell line analyzed as in FIG. 5E. Human cancer cell lines were seeded in 10 cm plates, covered with medium (6 mL) and incubated for 4 days. The supernatants were collected and centrifuged at 1200 rpm for 5 minutes.

promoter region of AREG [2] = assay: AREG promoter luciferase reporter in MLS cells; format: cell-based, human; settings: MLS ovarian cells, increasing concentrations of cisplatin, 48 hours
Experimental: (§2) FIGS. 5A-5B illustrate transcriptional activation of the AREG promoter by cisplatin. FIG. 5A is a graph illustrating the results of MLS cells transfected with a luciferase reporter containing the promoter region of AREG. Luciferase activity derived from the Renilla luciferase, was determined and normalized to that derived from the firefly luciferase reporter. Twenty-four hours after transfection, increasing concentrations of cisplatin were added and 48 hours later the cells were subjected to luciferase assay; and FIG. 5B illustrates the results of A549 lung cancer cells treated as in FIG. 5A. Averages of triplicates and S.D. values (bars) are presented (*P<0.03, **P<0.01, t-test). For promoter reporter assays, MLS and A549 cells were co-transfected with a Renilla luciferase plasmid containing the promoter region of AREG, TGF-alpha, a positive control of promoter activity, namely GAPDH, or a random control vector R01 used as a negative control (SwitchGear Genomics). Additionally, the pGL3-Control vector containing Firefly luciferase (Promega) was transfected as a control for transfection efficiency. Promoter activity was determined using the dual-luciferase reporter assay system according to the manufacturer's instructions (Promega). Renilla luciferase luminescence values were normalized to Firefly luminescence and quantified relative to control.

Caspase-3 = Caspase-3 cleavage immunoblot in OVCAR5 cells; format: cell-based, human; settings: cisplatin 5 μg/mL overnight as positive control
Experimental: FIGS. 4A-4D illustrate that depletion of AREG expression inhibits tumorigenic growth of human ovarian cancer cells. FIG. 4A is a graph illustrating results of OVCAR5 ovarian cancer cells treated with lentiviral expression constructs, either a scrambled shRNA or an AREG-specific shRNA. Conditioned media were collected three days later and the levels of secreted AREG were assessed using ELISA; FIG. 4B is a graph illustrating the growth rates of shAREG or shControl OVCAR5 cells measured using the MTT assay. Shown are means±S.D. values of hexaplicates (*P<0.005, t-test); FIG. 4C is a photograph illustrating Caspase-3 cleavage as assessed using immunoblotting and OVCAR5 sub-lines stably expressing three different shAREGs, or shControl. The assay was performed either in full medium or under serum starvation. Overnight treatment with cisplatin (5 μg/mL) was used as a positive control. […] Female nude mice (6 weeks old; 10 per group) were inoculated subcutaneously with OVCAR5 ovarian cells (3×10^6 per animal) pre-treated with either a scrambled shRNA or the AREG-specific shRNA. Tumor volumes were measured as indicated. Data points are presented as mean volume±S.D. values (*P<0.005, t-test).

promoter region of AREG [3] = assay: AREG promoter luciferase reporter in A549 cells; format: cell-based, human; settings: A549 lung cells, increasing concentrations of cisplatin, 48 hours
Experimental: as §2

MLS ovarian cancer cells = assay: MLS ovarian tumor xenograft in nude mice; format: in vivo; settings: MLS tumors, AR30 100 μg/mouse twice a week, cisplatin 5 mg/kg, FIG. 7B
Experimental: FIG. 7A, female nude mice (6 weeks old) were inoculated subcutaneously with MLS ovarian cancer cells (2×10^6 per animal). Once tumors became palpable, mice were randomized into two groups. Eleven mice were injected intraperitoneally with an anti-AREG mAb (AR30; 200 μg/mouse; twice a week, on days: 8, 11, 14, 17, and 21). The control group also included 11 mice. Shown are means±S.D. values; FIG. 7B, female nude mice (6 weeks old) were inoculated subcutaneously with MLS ovarian cancer cells (2×10^6 per animal). Once tumors became palpable, mice were randomized into four groups. One group (8 mice) was injected intraperitoneally with the AR30 mAb (100 μg/mouse twice a week, on days: 8, 14, 17, 21, 24 and 28). Another group (8 mice) was treated with cisplatin (5 mg/kg; on days 8 and 21). The fourth group was treated with a combination of mAb AR30 and cisplatin. The control group included 12 mice; and FIG. 7C, the indicated MLS tumors were excised, and their average weights determined. Representative tumors were photographed.
All animal procedures were approved by the Weizmann Institute of Science's review board. Female athymic NCr-nude mice (6 weeks old) were inoculated subcutaneously with 2×10^6 human ovarian MLS cancer cells. Once tumors became palpable (5-7 days), the mice were randomized into groups and injected intraperitoneally at the indicated time points with the indicated monoclonal antibodies, chemotherapy or the combination. Tumor volumes were monitored twice a week, and body weights were measured once a week.

[4] = tested on: promoter region of TGF-alpha; assay: TGF-alpha promoter luciferase reporter in MLS cells; format: cell-based, human; settings: increasing concentrations of cisplatin, 24 hours
Experimental: as §1, with “[…] Promoter activity was determined using the dual-luciferase reporter assay system according to the manufacturer's instructions (Promega). Renilla luciferase luminescence values” for “Human cancer cell lines”, “normalized to Firefly luminescence” for “seeded in 10 cm plates, covered with medium (6 mL)”, “quantified relative to control.” for “incubated for 4 days. The supernatants were collected and centrifuged at 1200 rpm for 5 minutes.”

N.N.[Cl][Pt][Cl] [cisplatin]
secretion of EGF-family ligands to the medium [1]: increased secretion of AREG, not EGF, TGF-alpha or HB-EGF
increase in AREG promoter reporter activity (promoter region of AREG [2]): 2 fold
Caspase-3 cleavage (Caspase-3): cleaved only in cells incubated for 12 hours in the presence of cisplatin
increase in AREG promoter reporter activity (promoter region of AREG [3]): 1.5 fold
tumor growth (MLS ovarian cancer cells): only mildly inhibited
TGF-alpha promoter reporter activity [4]: no consistent, cisplatin-induced changes in TGF-alpha induction
